This passage reports remaining activity results from paper PMC12675575, “A BRET biosensor for measuring uncompetitive engagement of PRMT5 complexes in cells” (Nature Communications, 2025).

The experiment has as its target NanoLuc-PRMT5 co-expressed with WDR77 (Homo sapiens, UniProt O14744). The experiment in a line: Live-cell NanoBRET target engagement with BRET probe CBH-002 in HEK293 cells expressing NanoLuc-PRMT5 and unlabeled WDR77. The class given is cell-based. The arrangement: host or cells: HEK293. The conditions noted are these: HEK293, Figure S2H, log([compound]), read-out: normalised BRET, Bio rep 1-3; for remaining activity at 0.3715 µM: uM -0.43; for remaining activity at 0.04074 µM: uM -1.39; for remaining activity at 0.0138 µM: uM -1.86; for remaining activity at 0.004571 µM: uM -2.34; for remaining activity at 0.001514 µM: uM -2.82; for remaining activity at 0.0005129 µM: uM -3.29; for remaining activity at 0.0001698 µM: uM -3.77. As to the method:
HEK293 cells (ATCC) were cultured in DMEM (Thermo Fisher) + 10% (v/v) FBS (Seredigm), and HCT116 cells (Horizon Discovery, #PAR-034 and #R02-033) were cultured in McCoy’s 5A (Thermo Fisher) + 10% FBS, with incubation in a humidified, 37 °C/5% CO2 incubator. Cells were split 1–3 days prior to performing experiments and used at roughly 80% confluency. […] Cells were transfected according to the manufacturer’s protocol using FuGENE HD (Promega). NanoLuc fusion DNA was diluted into Transfection Carrier DNA (Promega) in Opti-MEM at a ratio of 1:9 (mass/mass), and FuGENE HD was added at a ratio of 1:3 (μg DNA:μL lipid). […] Formed complexes were combined with cells resuspended to a density of 2 × 10^5 cells/mL in Opti-MEM + 1% FBS at a ratio of 1:20 (vol:vol). […] Cells were seeded at a density of 2 × 10^5 cells/mL in Opti-MEM + 1% FBS in 100 μL (96-well). The BRET probe CBH-002 was prepared first as a 100× stock in 100% DMSO (Sigma) and then diluted to a 20× stock in NanoBRET Tracer Dilution buffer (Promega). Test compounds were prepared as 1000× stocks in 100% DMSO and diluted to 10× stocks in Opti-MEM to prepare working stocks. […] NanoBRET Complete 3x Substrate was prepared by combining Nano-Glo Substrate and Extracellular NanoLuc Inhibitor in Opti-MEM, according to the manufacturer’s protocol (Promega).
BRET ratio values were calculated by dividing the acceptor by the donor signal, and raw BRET was converted to milli-BRET (mBRET) units (mBu) by multiplying by 1000.
EC50 values were obtained by fitting the BRET probe and compound affinity curves to a sigmoidal four-parameter fit model in Graphpad Prism:1 Y=Ymin+Ymax−Ymin/1+10^LogEC50−Xh where h is the Hill Slope.
When normalized BRET was used, mBRET values were normalized using2 NormalizedBRET%=(Y−BRETmin)/BRETmax−BRETmin where y = mBRET in the presence of test compound and BRET probe, BRETmin = mBRET at the highest concentration (saturating) of test compound and BRET probe, and BRETmax = mBRET in the presence of vehicle (DMSO) and BRET probe.
Normalized concentration-response curves showing full competition were fit using a 2-parameter model:3 Y=100/1+10^LogEC50−Xh
In situations where only partial competition was observed, the normalized concentration-response curves were fit using Eq. 1 and where Ymin was constrained to >0.

Where two headings read alike, the source gives them in different places.

NanoLuc-PRMT5 co-expressed with WDR77, sequence (O14744 whole entry): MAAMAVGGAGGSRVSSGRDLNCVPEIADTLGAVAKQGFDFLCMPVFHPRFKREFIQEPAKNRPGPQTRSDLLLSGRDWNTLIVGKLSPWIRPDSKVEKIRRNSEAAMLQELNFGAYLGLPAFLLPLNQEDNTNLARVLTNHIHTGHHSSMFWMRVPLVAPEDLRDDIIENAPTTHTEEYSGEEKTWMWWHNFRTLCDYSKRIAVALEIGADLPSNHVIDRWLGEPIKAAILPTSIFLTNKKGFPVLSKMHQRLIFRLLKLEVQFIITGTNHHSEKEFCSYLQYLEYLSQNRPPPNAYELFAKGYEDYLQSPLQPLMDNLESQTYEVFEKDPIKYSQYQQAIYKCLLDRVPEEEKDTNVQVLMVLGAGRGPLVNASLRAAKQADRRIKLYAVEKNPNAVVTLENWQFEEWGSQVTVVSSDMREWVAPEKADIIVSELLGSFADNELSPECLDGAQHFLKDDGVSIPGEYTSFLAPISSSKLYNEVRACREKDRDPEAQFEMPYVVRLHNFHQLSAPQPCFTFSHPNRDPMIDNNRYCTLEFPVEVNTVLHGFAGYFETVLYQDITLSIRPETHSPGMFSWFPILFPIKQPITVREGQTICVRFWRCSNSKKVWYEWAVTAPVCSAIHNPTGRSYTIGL
NanoLuc-PRMT5 co-expressed with WDR77, sequence (Q9BQA1 whole entry partner): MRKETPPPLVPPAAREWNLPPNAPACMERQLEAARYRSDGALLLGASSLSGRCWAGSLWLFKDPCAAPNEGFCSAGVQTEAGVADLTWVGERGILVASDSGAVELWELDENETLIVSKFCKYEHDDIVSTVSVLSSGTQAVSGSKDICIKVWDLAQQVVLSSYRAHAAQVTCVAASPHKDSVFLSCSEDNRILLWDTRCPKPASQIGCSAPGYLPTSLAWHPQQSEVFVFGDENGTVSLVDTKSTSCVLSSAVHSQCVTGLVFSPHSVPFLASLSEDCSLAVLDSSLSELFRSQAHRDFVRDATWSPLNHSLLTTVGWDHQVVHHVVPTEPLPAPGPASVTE

In the case of `CC(C)Oc1ccc(-c2c[nH]cc2CN(C)CCN)cc1` [MS023, reference compound], the remaining activity at 0.3715 µM was found to be 102%, the remaining activity at 0.04074 µM came out at 103%, the remaining activity at 0.0138 µM was 104% and the remaining activity at 0.004571 µM worked out at 101%. The remaining activity at 0.001514 µM stood at 102%, the remaining activity at 0.0005129 µM is 103% and the remaining activity at 0.0001698 µM amounted to 98%. Moreover, the remaining activity at […] (uM 0.0458) was 103%. Besides, under “uM 0.52”, the remaining activity at […] is 102%. Moreover, where the note is “uM -0.91”, the remaining activity at […] is 103%.
Take `CNCCN1CCC(c2cc(CN(C)C(=O)c3cccc(Oc4ccccc4)c3)ccn2)CC1` [TP064, reference compound]: the remaining activity at 0.3715 µM turned out to be 102%, the remaining activity at 0.04074 µM is 101%, the remaining activity at 0.0138 µM stood at 101% and the remaining activity at 0.004571 µM was 99.8%. The remaining activity at 0.001514 µM amounted to 97.9%, the remaining activity at 0.0005129 µM turned out to be 97.6% and the remaining activity at 0.0001698 µM worked out at 97.4%. Also, the remaining activity at […] (uM 0.0458) amounted to 100%. Besides, for the setting “uM 0.52”, the remaining activity at […] was 99%. Also, under “uM -0.91”, the remaining activity at […] was 102%.
